# Data taken from PubChem BioAssay AID200 (DTP/NCI, 2004).
# Several values for one entry are separate records, joined by “and”; a condition that tells them apart may be missing. Equal values may be shown once. Inconclusive results and toxic doses are left out.
# System: B6C3F1 mice, B16 melanoma ip, median survival T/C
# Test: NCI In Vivo Anticancer Drug Screen. Data for tumor model B16 Melanoma (intraperitoneal) in B6C3F1 mice
# Conditions: endpoint: median survival time, higher = longer survival
# In short: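 Values are T/C ratios: the measurement in treated animals divided by that in vehicle-treated controls, using survival or tumor size in mice carrying transplantable tumors.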
# [1] = dose: 100.0 mg/kg/injection, schedule: Q01DX009 (ip), vehicle: saline
# [2] = dose: 25.0 mg/kg/injection, schedule: Q01DX009 (ip), vehicle: saline with Tween-80
# [3] = dose: 50.0 mg/kg/injection, schedule: Q01DX009 (ip), vehicle: saline with Tween-80
# [4] = dose: 100.0 mg/kg/injection, schedule: Q01DX009 (ip), vehicle: saline with Tween-80
# [5] = dose: 200.0 mg/kg/injection, schedule: Q01DX009 (ip), vehicle: saline with Tween-80
# [6] = dose: 400.0 mg/kg/injection, schedule: Q01DX009 (ip), vehicle: saline with Tween-80
# [7] = dose: 25.0 mg/kg/injection, schedule: Q01DX009 (ip), vehicle: saline
# [8] = dose: 50.0 mg/kg/injection, schedule: Q01DX009 (ip), vehicle: saline
# [9] = dose: 200.0 mg/kg/injection, schedule: Q01DX009 (ip), vehicle: saline
smiles,measurement,setting,value
COc1cccc2c1C(=O)c1c(O)c3c(c(O)c1C2=O)C[C@@](O)(C(C)=O)C[C@@H]3OC1CC(NC(=O)C(N)CC(C)C)C(O)C(C)O1 (some centres undefined),T/C,"dose: 6.25 mg/kg/injection, schedule: Q01DX001 (ip), vehicle: saline",179 % of control
same,T/C,"dose: 12.5 mg/kg/injection, schedule: Q01DX001 (ip), vehicle: saline",204 % of control
OCc1c(CO)c(-c2ccc(Cl)cc2)n2c1CCC2,T/C,"dose: 25.0 mg/kg/injection, schedule: Q01DX009 (ip), vehicle: distilled water + Tween-80",94 % of control
same,T/C,"dose: 50.0 mg/kg/injection, schedule: Q01DX009 (ip), vehicle: distilled water + Tween-80",107 % of control
same,T/C,"dose: 100.0 mg/kg/injection, schedule: Q01DX009 (ip), vehicle: distilled water + Tween-80",121 % of control
same,T/C,"dose: 200.0 mg/kg/injection, schedule: Q01DX009 (ip), vehicle: distilled water + Tween-80",198 % of control
O=C1CN(CCN2CC(=O)N(CN3CCOCC3)C(=O)C2)CC(=O)N1CN1CCOCC1,T/C,"dose: 12.5 mg/kg/injection, schedule: Q01DX009 (ip), vehicle: water",107 % of control
same,T/C,"dose: 25.0 mg/kg/injection, schedule: Q01DX009 (ip), vehicle: water",114 % of control and 118 % of control (2×)
same,T/C,"dose: 50.0 mg/kg/injection, schedule: Q01DX009 (ip), vehicle: water",150 % of control and 154 % of control
CCCC(NC(=O)C(C)N)C(=O)O (centres undefined),T/C,"dose: 50.0 mg/kg/injection, schedule: Q01DX009 (ip), vehicle: Klucel (hydroxypropylcellulose) (HPC)",106 % of control
same,T/C,"dose: 100.0 mg/kg/injection, schedule: Q01DX009 (ip), vehicle: Klucel (hydroxypropylcellulose) (HPC)",112 % of control
same,T/C,"dose: 200.0 mg/kg/injection, schedule: Q01DX009 (ip), vehicle: Klucel (hydroxypropylcellulose) (HPC)",92 % of control
same,T/C,"dose: 400.0 mg/kg/injection, schedule: Q01DX009 (ip), vehicle: Klucel (hydroxypropylcellulose) (HPC)",98 % of control
CSCCC(NC(=O)c1ccccc1)C(=O)O (centres undefined),T/C,[1],93 % of control
Cc1ccc(N)c(N)c1,T/C,[2],95 % of control
same,T/C,[3],99 % of control
same,T/C,[4],102 % of control
same,T/C,[5],104 % of control
CC(=O)Nc1ccc(O)c(O)c1,T/C,"dose: 12.5 mg/kg/injection, schedule: Q01DX009 (ip), vehicle: saline with Tween-80",109 % of control and 112 % of control
same,T/C,[2],114 % of control and 117 % of control
same,T/C,[3],104 % of control and 105 % of control
same,T/C,[4],113 % of control and 101 % of control
same,T/C,[5],113 % of control and 106 % of control
same,T/C,[6],122 % of control and 106 % of control
CC(C)n1cnc2c(Cl)ncnc21,T/C,[2],88 % of control
same,T/C,[3],104 % of control
same,T/C,[4],87 % of control
CN=C(N)N/N=C(\c1ccccc1)c1ccc(Br)cc1,T/C,"dose: 1.5 mg/kg/injection, schedule: Q01DX009 (ip), vehicle: saline with Tween-80",103 % of control
same,T/C,"dose: 3.0 mg/kg/injection, schedule: Q01DX009 (ip), vehicle: saline with Tween-80",107 % of control
same,T/C,"dose: 6.0 mg/kg/injection, schedule: Q01DX009 (ip), vehicle: saline with Tween-80",97 % of control
same,T/C,"dose: 12.0 mg/kg/injection, schedule: Q01DX009 (ip), vehicle: saline with Tween-80",96 % of control
CC1(C)COCN1COC1CCCCC1,T/C,"dose: 6.25 mg/kg/injection, schedule: Q01DX009 (ip), vehicle: saline",99 % of control
same,T/C,"dose: 12.5 mg/kg/injection, schedule: Q01DX009 (ip), vehicle: saline",114 % of control
same,T/C,[2],102 % of control
same,T/C,[7],99 % of control
same,T/C,[3],112 % of control
same,T/C,[8],114 % of control
same,T/C,[4],115 % of control
same,T/C,[1],106 % of control
Cc1ccccc1N(C=O)c1ccccc1C,T/C,[4],97 % of control
same,T/C,[5],97 % of control
same,T/C,[6],97 % of control
CC(=O)NCCSSCCCCS(=O)O,T/C,[7],96 % of control
same,T/C,[8],103 % of control
same,T/C,[1],98 % of control
same,T/C,[9],111 % of control
same,T/C,"dose: 400.0 mg/kg/injection, schedule: Q01DX009 (ip), vehicle: saline",96 % of control
CC(CNC(=O)CCOS(C)(=O)=O)NC(=O)CCOS(C)(=O)=O (centres undefined),T/C,[1],187 % of control
same,T/C,[9],177 % of control and 240 % of control
